# Data as given in patent publication US11077106B2, “Cancer treatment” (Janssen Pharmaceutica NV, priority 2017, dated 2021).
# Where two headings read alike, the source gives them in different places.
# Experiments:
# [1] = system: metastatic or surgically unresectable urothelial cancer harboring select FGFR genetic alterations
# Experimental: Assessments of tumor responses as reported herein were performed according to Response Evaluation Criteria in Solid Tumors (RECIST) version 1.1.
# Included patients were adults with measurable urothelial cancer per Response Evaluation Criteria in Solid Tumors version 1.1.
# Patients were required to have at least 1 FGFR2/FGFR3 mutation or fusion per central lab testing of RNA from formalin-fixed, paraffin-embedded tumor samples, using a custom assay.
# Patients had progressed during or following at least 1 line of prior systemic chemotherapy or less than 12 months of neoadjuvant or adjuvant chemotherapy.
# The primary end point of this ongoing study is Objective Response Rate to the selected regimen (Regimen 3).
# Secondary end points include progression-free survival (PFS), duration of response (DoR), Overall Survival, safety, predictive biomarker evaluation, and pharmacokinetics.
# Patients were assessed for efficacy using radiographic imaging performed within 30 days of screening, once every 6 weeks for the first 3 months, once every 12 weeks for the next 9 months, then once every 4 to 6 months until disease progression. Tumor responses were assessed by investigators according to RECIST version 1.1 (Eisenhauer E A et al., Eur J Cancer, 2009, 45(2), 228-247).
# [2] = system: subjects with metastatic or surgically unresectable urothelial cancer
# Experimental: The study comprises a Screening Phase (molecular screening at any time prior to first dose and study screening within 30 days of first dose), a treatment phase, and a post-treatment follow-up phase. The treatment phase comprises the period from first dose until the end-of-treatment visit. The follow-up phase will extend until the subject has died, withdraws consent, is lost to follow-up, or the end of study, whichever comes first. Study treatment is administered on 28-day cycles. Prior to interim analysis 1, there were 2 treatment regimens.
# Safety was assessed continuously by the investigator and based on medical review of AE reports and the results of vital sign measurements, physical examinations, clinical laboratory tests, ECOG performance status, and other safety evaluations.
# [3] = Regimen 1, 10 mg intermittent dose (n = 33)
# [4] = Regimen 2, 6 mg continuous dose (n = 78)
# [5] = Regimen 3, 8 mg continuous dose (n = 59)
# [6] = Any grade, Regimen 2, 6 mg continuous dose (n = 78)
# [7] = Any grade, Regimen 3, 8 mg continuous dose (n = 96)
# [8] = Grade ≥ 3, Regimen 1, 10 mg intermittent dose (n = 33)
# [9] = Grade ≥ 3, Regimen 2, 6 mg continuous dose (n = 78)
# [10] = Grade ≥ 3, Regimen 3, 8 mg continuous dose (n = 96)
smiles,measurement,setting,value
"COc1cc(OC)cc(N(CCNC(C)C)c2ccc3ncc(-c4cnn(C)c4)nc3c2)c1 [erdafitinib, N-(3,5-dimethoxyphenyl)-N′-(1-methylethyl)-N-[3-(1-methyl-1H-pyrazol-4-y)quinoxalin-6-yl]ethane-1,2-diamine]",patients with reduction in the sum of target lesion diameters,"[1]; 8 mg/d continuous erdafitinib (Regimen 3), 44/59 patients",75%
same,Complete response,[1]; [3],2 (6) n (%)
same,"Disease control rate, confirmed, n (%)",[1]; [3],24 (73) n (%)
same,"ORR, confirmed, n (%)",[1]; [3],8 (24) n (%)
same,Partial response,[1]; [3],6 (18) n (%)
same,"Progression-free survival, median, months",[1]; [3],4.0 months
same,Stable disease,[1]; [3],16 (49) n (%)
same,Complete response,[1]; [4],2 (3) n (%)
same,"Disease control rate, confirmed, n (%)",[1]; [4],57 (73) n (%)
same,"ORR, confirmed, n (%)",[1]; [4],27 (35) n (%)
same,Partial response,[1]; [4],25 (32) n (%)
same,"Progression-free survival, median, months",[1]; [4],5.1 months
same,Stable disease,[1]; [4],30 (39) n (%)
same,Complete response,[1]; [5],3 (5) n (%)
same,"Disease control rate, confirmed, n (%)",[1]; [5],48 (81) n (%)
same,"ORR, confirmed, n (%)",[1]; [5],25 (42) n (%)
same,Partial response,[1]; [5],22 (37) n (%)
same,"Progression-free survival, median, months",[1]; [5],5.6 months
same,Stable disease,[1]; [5],23 (39) n (%)
same,Median Progression Free Survival,[1]; across all dose regimens,5.1 months
same,confirmed Objective Response Rate,"[1]; across all dose regimens (n = 170), 95% CI, 28%-43%",35%
same,confirmed disease control rate,[1]; among all patients (n = 170),76%
same,response to treatment in relation to number of prior lines of treatment,"[1]; chemo-naïve, one prior line, or two or more prior lines of chemotherapy",independent of the number of prior lines treatment
same,median time to response,[1]; subset of 59 patients on Regimen 3,1.41 months
same,TRAE: Alopecia,[2]; [6],7 (9) n (%)
same,TRAE: Asthenia,[2]; [6],12 (15) n (%)
same,TRAE: Decreased appetite,[2]; [6],18 (23) n (%)
same,TRAE: Diarrhea,[2]; [6],34 (44) n (%)
same,TRAE: Dry eye,[2]; [6],2 (3) n (%)
same,TRAE: Dry mouth,[2]; [6],31 (40) n (%)
same,TRAE: Dry skin,[2]; [6],17 (22) n (%)
same,TRAE: Dysgeusia,[2]; [6],10 (13) n (%)
same,TRAE: Fatigue,[2]; [6],14 (18) n (%)
same,TRAE: Hyperphosphatemia,[2]; [6],48 (62) n (%)
same,TRAE: Lacrimation increased,[2]; [6],11 (14) n (%)
same,TRAE: Nail dystrophy,[2]; [6],7 (9) n (%)
same,TRAE: Onycholysis,[2]; [6],13 (17) n (%)
same,TRAE: Palmar-plantar erythrodysaesthesia syndrome,[2]; [6],12 (15) n (%)
same,TRAE: Paronychia,[2]; [6],11 (14) n (%)
same,TRAE: Stomatitis,[2]; [6],32 (41) n (%)
same,TRAE: Vision blurred,[2]; [6],5 (6) n (%)
same,TRAE: Alopecia,[2]; [7],22 (23) n (%)
same,TRAE: Asthenia,[2]; [7],13 (14) n (%)
same,TRAE: Decreased appetite,[2]; [7],23 (24) n (%)
same,TRAE: Diarrhea,[2]; [7],40 (42) n (%)
same,TRAE: Dry eye,[2]; [7],17 (18) n (%)
same,TRAE: Dry mouth,[2]; [7],40 (42) n (%)
same,TRAE: Dry skin,[2]; [7],26 (27) n (%)
same,TRAE: Dysgeusia,[2]; [7],32 (33) n (%)
same,TRAE: Fatigue,[2]; [7],19 (20) n (%)
same,TRAE: Hyperphosphatemia,[2]; [7],66 (69) n (%)
same,TRAE: Lacrimation increased,[2]; [7],8 (8) n (%)
same,TRAE: Nail dystrophy,[2]; [7],12 (13) n (%)
same,TRAE: Onycholysis,[2]; [7],10 (10) n (%)
same,TRAE: Palmar-plantar erythrodysaesthesia syndrome,[2]; [7],15 (16) n (%)
same,TRAE: Paronychia,[2]; [7],14 (15) n (%)
same,TRAE: Stomatitis,[2]; [7],45 (47) n (%)
same,TRAE: Vision blurred,[2]; [7],15 (16) n (%)
same,TRAE: Alopecia,[2]; [8],0 n (%)
same,TRAE: Asthenia,[2]; [8],2 (6) n (%)
same,TRAE: Decreased appetite,[2]; [8],0 n (%)
same,TRAE: Diarrhea,[2]; [8],1 (3) n (%)
same,TRAE: Dry eye,[2]; [8],0 n (%)
same,TRAE: Dry mouth,[2]; [8],0 n (%)
same,TRAE: Dry skin,[2]; [8],0 n (%)
same,TRAE: Dysgeusia,[2]; [8],0 n (%)
same,TRAE: Fatigue,[2]; [8],0 n (%)
same,TRAE: Hyperphosphatemia,[2]; [8],0 n (%)
same,TRAE: Lacrimation increased,[2]; [8],0 n (%)
same,TRAE: Nail dystrophy,[2]; [8],0 n (%)
same,TRAE: Onycholysis,[2]; [8],0 n (%)
same,TRAE: Palmar-plantar erythrodysaesthesia syndrome,[2]; [8],0 n (%)
same,TRAE: Paronychia,[2]; [8],0 n (%)
same,TRAE: Stomatitis,[2]; [8],1 (3) n (%)
same,TRAE: Vision blurred,[2]; [8],0 n (%)
same,TRAE: Alopecia,[2]; [9],0 n (%)
same,TRAE: Asthenia,[2]; [9],4 (5) n (%)
same,TRAE: Decreased appetite,[2]; [9],2 (3) n (%)
same,TRAE: Diarrhea,[2]; [9],0 n (%)
same,TRAE: Dry eye,[2]; [9],1 (1) n (%)
same,TRAE: Dry mouth,[2]; [9],2 (3) n (%)
same,TRAE: Dry skin,[2]; [9],0 n (%)
same,TRAE: Dysgeusia,[2]; [9],0 n (%)
same,TRAE: Fatigue,[2]; [9],1 (1) n (%)
same,TRAE: Hyperphosphatemia,[2]; [9],0 n (%)
same,TRAE: Lacrimation increased,[2]; [9],0 n (%)
same,TRAE: Nail dystrophy,[2]; [9],0 n (%)
same,TRAE: Onycholysis,[2]; [9],5 (6) n (%)
same,TRAE: Palmar-plantar erythrodysaesthesia syndrome,[2]; [9],0 n (%)
same,TRAE: Paronychia,[2]; [9],0 n (%)
same,TRAE: Stomatitis,[2]; [9],7 (9) n (%)
same,TRAE: Vision blurred,[2]; [9],1 (1) n (%)
same,TRAE: Alopecia,[2]; [10],0 n (%)
same,TRAE: Asthenia,[2]; [10],3 (3) n (%)
same,TRAE: Decreased appetite,[2]; [10],0 n (%)
same,TRAE: Diarrhea,[2]; [10],3 (3) n (%)
same,TRAE: Dry eye,[2]; [10],0 n (%)
same,TRAE: Dry mouth,[2]; [10],0 n (%)
same,TRAE: Dry skin,[2]; [10],0 n (%)
same,TRAE: Dysgeusia,[2]; [10],1 (1) n (%)
same,TRAE: Fatigue,[2]; [10],1 (1) n (%)
same,TRAE: Hyperphosphatemia,[2]; [10],2 (2) n (%)
same,TRAE: Lacrimation increased,[2]; [10],0 n (%)
same,TRAE: Nail dystrophy,[2]; [10],3 (3) n (%)
same,TRAE: Onycholysis,[2]; [10],1 (1) n (%)
same,TRAE: Palmar-plantar erythrodysaesthesia syndrome,[2]; [10],4 (4) n (%)
same,TRAE: Paronychia,[2]; [10],3 (3) n (%)
same,TRAE: Stomatitis,[2]; [10],8 (8) n (%)
same,TRAE: Vision blurred,[2]; [10],0 n (%)
same,patients discontinued as the result of TRAEs,[2]; across all dose regimens (22 patients),11%
same,treatment-related deaths,"[2]; across all dose regimens, safety population N=207",no treatment-related deaths
same,patients reporting grade 4 TRAEs,"[2]; across all dose regimens, safety population N=207 (n=1)",0.5%
same,patients reporting grade 3 TRAEs,"[2]; across all dose regimens, safety population N=207 (n=69)",33%
same,patients reporting TRAEs,"[2]; across all dose regimens, safety population N=207 (n=195)",94%
same,patients reporting retinopathy,"[2]; across all dose regimens, grade 2 [n=1] and grade 3 [n=1]",2 patients
